In the assay the test system is caries. The experiment in a line: optimum photosensitiser concentration for photo-activated disinfection of caries. Conditions: at 635 nm. The procedure:
The concentration of tolonium chloride will depend on the specific application and chosen wavelength. We have determined an optimum at 635 nm for caries of 12 μg/ml. Longer wavelengths and other applications especially periodontal disease where in vivo dilution may occur are likely to need greater concentrations, whereas shorter wavelengths may require reduced concentrations. Preferably, therefore, the concentration should fall within an overall range between 1 and 200 μg/ml. […] The reduction in efficacy as the concentration increases beyond the optimum is thought to be due to the accompanying increasing absorption limiting the light transmission through the treatment zone.

Molecules are shown by their SMILES.

Consider 1 compound from patent US20080214530A1, “Photo-Activated Disinfection” (priority 2003, published 2008).

For `Cc1cc2nc3ccc(N(C)C)cc3[s+]c2cc1N` [tolonium chloride], the optimum concentration is 12 µg/mL.
